From patent US10654884B2 (Vitae Pharmaceuticals, Inc., priority 2014, dated 2020)
Read-outs that look alike come from different tables or passages of the source.

Biological target: T1, human CD73 (Homo sapiens, UniProt P21589)
T1 construct: purchased R&D Systems 5795-EN-010
T1 sequence (P21589 27-549): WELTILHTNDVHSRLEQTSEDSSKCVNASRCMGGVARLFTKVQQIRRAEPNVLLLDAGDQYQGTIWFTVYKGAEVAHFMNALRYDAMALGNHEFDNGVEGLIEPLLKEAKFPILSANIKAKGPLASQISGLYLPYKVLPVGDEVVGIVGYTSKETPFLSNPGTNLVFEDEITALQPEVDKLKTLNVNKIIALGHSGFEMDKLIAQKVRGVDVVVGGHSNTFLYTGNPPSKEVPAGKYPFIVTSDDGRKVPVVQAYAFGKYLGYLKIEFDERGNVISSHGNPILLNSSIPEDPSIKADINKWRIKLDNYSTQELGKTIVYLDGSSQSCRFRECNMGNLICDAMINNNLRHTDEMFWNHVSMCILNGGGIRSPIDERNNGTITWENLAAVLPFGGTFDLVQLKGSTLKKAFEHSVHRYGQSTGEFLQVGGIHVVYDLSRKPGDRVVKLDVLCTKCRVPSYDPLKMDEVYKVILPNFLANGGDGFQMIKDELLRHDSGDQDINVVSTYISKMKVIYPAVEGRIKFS
Assay: Inhibition of 5′-Nucleotidase Activity of CD73 (Assay 1)
Type: biochemical
Conditions: 50 μM CMP, 20 min at RT, malachite green readout
Procedure: Inhibition of 5′-Nucleotidase Activity of CD73 (Assay 1)
Compounds of the present invention were tested for the ability to inhibit CD73 enzyme activity. Tested compounds were dissolved in DMSO (50× final concentration), and 3.2 μL of the solutions added to 96-well polystyrene plates. To these wells were added, 100 μL of human CD73 (R&D Systems Cat. No. 5795-EN-010) and 57 μL of cytidine-5′-monophosphate (CMP) solutions in assay buffer (25 mM Tris-HCl, pH 7.4, 0.005% Brij-35) were added to achieve final concentrations in the assay of 4 ng/ml CD73 and 50 μM of CMP. The assay mixture was incubated for 20 min at RT. The reaction was stopped by addition of 40 μL of malachite green reagent which was prepared by mixing together 10 ml 2M H2SO4, 2.5 ml of 15% ammonium molybdate and 0.2 ml of 11% Tween-20. The mixture was agitated vigorously for 10 min at RT, and absorbance at 620 nm was determined on a microplate spectrophotometer. […] The IC50 values were derived using a non-linear 4 parameter logistic model (XLFit software, IDBS) and correspond to the inflection points on dose-response curves.

[1] = human CD73 4 ng/ml, read-out: Assay 1: IC50, inhibition of 5′-nucleotidase activity of CD73
[2] = Assay 1: IC50, inhibition of 5′-nucleotidase activity of CD73, human CD73 4 ng/ml

SMILES | IC50 [1] | IC50 [2]
CS(=O)(=O)C(OC[C@H]1O[C@@H](n2cnc3c(N)nc(Cl)nc32)[C@H](O)[C@@H]1O)P(=O)(O)O (single isomer, unassigned) [Example 10a] | > 1 µM | –
CCCS(=O)(=O)[C@@H](OC[C@H]1O[C@@H](n2cnc3c(N)nc(Cl)nc32)[C@H](O)[C@@H]1O)P(=O)(O)O (single isomer, unassigned) [Example 12a] | > 1 µM | –
CC(C)CS(=O)(=O)[C@@H](OC[C@H]1O[C@@H](n2cnc3c(N)nc(Cl)nc32)[C@H](O)[C@@H]1O)P(=O)(O)O (single isomer, unassigned) [Example 13a] | > 1 µM | –
CCOC(=O)[C@@H](OC[C@H]1O[C@@H](n2ccc(=O)n(C)c2=O)[C@H](O)[C@@H]1O)P(=O)(O)O (single isomer, unassigned) [Example 30a] | > 1 µM | –
CCOC(=O)[C@@H](OC[C@@H]1O[C@H](n2cnc3c(N)nc(C)nc32)[C@@H](O)[C@H]1O)P(=O)(O)O (single isomer, unassigned) [Example 37a] | > 1 µM | –
CCOC(=O)[C@@H](OC[C@H]1O[C@@H](n2cnc3c(N)nc(-c4ccccc4)nc32)[C@H](O)[C@@H]1O)P(=O)(O)O (single isomer, unassigned) [Example 40a] | < 0.1 µM | –
CCOC(=O)[C@@H](OC[C@H]1O[C@@H](n2cnc3c(N)nc(-c4cc(F)cc(F)c4)nc32)[C@H](O)[C@@H]1O)P(=O)(O)O (single isomer, unassigned) [Example 41a] | > 1 µM | –
CCOC(=O)[C@@H](OC[C@H]1O[C@@H](n2cnc3c(N)nc(C(F)(F)F)nc32)[C@H](O)[C@@H]1O)P(=O)(O)O (single isomer, unassigned) [Example 42a] | > 1 µM | –
CCOC(=O)[C@@H](OC[C@H]1O[C@@H](n2cnc3c(N)nc(CC(C)C)nc32)[C@H](O)[C@@H]1O)P(=O)(O)O (single isomer, unassigned) [Example 46a] | > 1 µM | –
CCOC(=O)[C@@H](OC[C@H]1O[C@@H](n2cnc3c(N)nc(C4CC4)nc32)[C@H](O)[C@@H]1O)P(=O)(O)O (single isomer, unassigned) [Example 50a] | > 1 µM | –
CCOC(=O)[C@@H](OC[C@H]1O[C@@H](n2cnc3c(N)nc(C4NCCO4)nc32)[C@H](O)[C@@H]1O)P(=O)(O)O (single isomer, unassigned) [Example 51b] | > 1 µM | –
CC(C)(C)OC(=O)[C@H](OC[C@H]1O[C@@H](n2cnc3c(N)nc(CN)nc32)[C@H](O)[C@@H]1O)P(=O)(O)O (single isomer, unassigned) [Example 55] | > 1 µM | –
CC(C)(C)OC(=O)[C@@H](OC[C@H]1O[C@@H](n2cnc3c(N)nc(CN)nc32)[C@H](O)[C@@H]1O)P(=O)(O)O (single isomer, unassigned) [Example 55a] | > 1 µM | –
Nc1ncnc2c1ncn2[C@@H]1O[C@H](CO[C@@H](CO)P(=O)(O)O)[C@@H](O)[C@H]1O (single isomer, unassigned) [Example 57] | > 1 µM | –
Nc1ncnc2c1ncn2[C@@H]1O[C@H](CO[C@H](CO)P(=O)(O)O)[C@@H](O)[C@H]1O (single isomer, unassigned) [Example 57a] | > 1 µM | –
Cn1c(=O)ccn([C@@H]2O[C@H](CO[C@@H](C(=O)O)P(=O)(O)O)[C@@H](O)[C@H]2O)c1=O (single isomer, unassigned) [Example 60] | > 1 µM | –
Cn1c(=O)ccn([C@@H]2O[C@H](CO[C@H](C(=O)O)P(=O)(O)O)[C@@H](O)[C@H]2O)c1=O (single isomer, unassigned) [Example 60a] | > 1 µM | –
Nc1nc(Cl)nc2c1ncn2[C@@H]1O[C@H](COC(C(=O)O)P(=O)(O)O)[C@@H](O)[C@H]1O (single isomer, unassigned) [Example 61a] | < 0.1 µM | –

SMILES | IC50 [1] | IC50 [2]
CCOC(=O)[C@@H](OC[C@H]1C[C@@H](n2cnc3cccc(Cl)c3c2=O)[C@H](O)[C@@H]1O)P(=O)(O)O (single isomer, unassigned) [Example 70a] | > 1 µM | –
CCOC(=O)[C@@H](OC[C@H]1C[C@@H](n2cnc3cccc(Br)c3c2=O)[C@H](O)[C@@H]1O)P(=O)(O)O (single isomer, unassigned) [Example 72a] | > 1 µM | –
CCOC(=O)[C@@H](OC[C@H]1C[C@@H](n2cnc3cccc(C#N)c3c2=O)[C@H](O)[C@@H]1O)P(=O)(O)O (single isomer, unassigned) [Example 73a] | > 1 µM | –
CCOC(=O)[C@@](CC(=O)O)(OC[C@H]1O[C@@H](n2cnc3c(N)nc(F)nc32)[C@H](O)[C@@H]1O)P(=O)(O)O (single isomer, unassigned) [Example 79a] | 0.1 to 1 µM | –
CCNc1nc(Cl)nc2c1ncn2[C@@H]1O[C@H](CO[C@@](C)(C(=O)OCC)P(=O)(O)OCC)[C@@H](O)[C@H]1O (single isomer, unassigned) [Example 80] | – | > 1 µM
CCNc1nc(Cl)nc2c1ncn2[C@@H]1O[C@H](CO[C@](C)(C(=O)OCC)P(=O)(O)OCC)[C@@H](O)[C@H]1O (single isomer, unassigned) [Example 80a] | – | > 1 µM
CCOC(=O)C(OC[C@H]1O[C@@H](n2cnc3cc(Cl)c(Cl)cc32)[C@H](O)[C@@H]1O)P(=O)(O)O (single isomer, unassigned) [Example 81] | > 1 µM | –
CCOC(=O)C(OC[C@H]1O[C@@H](n2cnc3cc(Cl)c(Cl)cc32)[C@H](O)[C@@H]1O)P(=O)(O)O (single isomer, unassigned) [Example 81a] | > 1 µM | –
CCOC(=O)C(OC[C@H]1O[C@@H](n2cnc3ccc(Cl)nc32)[C@H](O)[C@@H]1O)P(=O)(O)O (single isomer, unassigned) [Example 87a] | > 1 µM | –
Nc1ncnc2c1ncn2[C@@H]1O[C@H](COC(C(=O)O)C(=O)O)[C@@H](O)[C@H]1O [Example 8, 2-(((2R,3S,4R,5R)-5-(6-amino-9H-purin-9-yl)-3,4-dihydroxytetrahydrofuran-2-yl)methoxy)malonic acid] | > 1 µM | –
CNC(=O)C(OC[C@H]1O[C@@H](n2ccc(=O)n(C)c2=O)[C@H](O)[C@@H]1O)P(=O)(O)O (stereo partly drawn) [Example 31, (1-(((2R,3S,4R,5R)-3,4-dihydroxy-5-(3-methyl-2,4-dioxo-3,4-dihydropyrimidin-1(2H)-yl)tetrahydrofuran-2-yl)methoxy)-2-(methylamino)-2-oxoethyl)phosphonic Acid] | > 1 µM | –
CCNC(=O)C(OC[C@H]1O[C@@H](n2ccc(=O)n(C)c2=O)[C@H](O)[C@@H]1O)P(=O)(O)O (stereo partly drawn) [Example 32, (1-(((2R,3S,4R,5R)-3,4-dihydroxy-5-(3-methyl-2,4-dioxo-3,4-dihydropyrimidin-1(2H)-yl)tetrahydrofuran-2-yl)methoxy)-2-(ethylamino)-2-oxoethyl)phosphonic Acid] | > 1 µM | –
Nc1ncnc2c1ncn2[C@@H]1O[C@H](COC(C(=O)NO)P(=O)(O)O)[C@@H](O)[C@H]1O (stereo partly drawn) [Example 35, (1-(((2R,3S,4R,5R)-5-(6-amino-9H-purin-9-yl)-3,4-dihydroxytetrahydrofuran-2-yl)methoxy)-2-(hydroxyamino)-2-oxoethyl)phosphonic Acid] | > 1 µM | –
COC(=O)C(SC[C@H]1O[C@@H](n2cnc3c(N)ncnc32)[C@H](O)[C@@H]1O)P(=O)(O)O (stereo partly drawn) [Example 56, (1-((((2S,3S,4R,5R)-5-(6-amino-9H-purin-9-yl)-3,4-dihydroxytetrahydrofuran-2-yl)methyl)thio)-2-methoxy-2-oxoethyl)phosphonic Acid] | > 1 µM | –
CC(C)Nc1ncnc2c1ncn2[C@@H]1O[C@H](COC(C(=O)O)P(=O)(O)O)[C@@H](O)[C@H]1O (stereo partly drawn) [Example 64, 2-(((2R,3S,4R,5R)-3,4-dihydroxy-5-(6-(isopropylamino)-9H-purin-9-yl)tetrahydrofuran-2-yl)methoxy)-2-phosphonoacetic acid] | > 1 µM | –
O=C(O)C(OC[C@H]1C[C@@H](n2cnc3cccc(Cl)c3c2=O)[C@H](O)[C@@H]1O)P(=O)(O)O (stereo partly drawn) [Example 71, 2-(((1R,2R,3S,4R)-4-(5-chloro-4-oxoquinazolin-3(4H)-yl)-2,3-dihydroxycyclopentyl)methoxy)-2-phosphonoacetic acid] | > 1 µM | –
O=C(O)C(OC[C@H]1C[C@@H](n2cnc3cccc(Cl)c3c2=O)[C@H](O)[C@@H]1O)C(=O)O [Example 74, 2-(((1R,2R,3S,4R)-4-(5-chloro-4-oxoquinazolin-3(4H)-yl)-2,3-dihydroxycyclopentyl)methoxy)malonic acid] | > 1 µM | –
